Source: paper PMC6149819, “Domain IV of Annexin A5 Is Critical for Binding Calcium and Guarantees Its Maximum Binding to the Phosphatidylserine Membrane” (Molecules : A Journal of Synthetic Chemistry and Natural …, 2017)

What was measured:
[1] = target: T1, ctA5 (C-terminal truncated anxA5, lacking domain IV) (Homo sapiens, UniProt P08758, DEL255-320); experiment: isothermal titration calorimetry, one-site model; type: binding
T1 construct: domain IV (last 66 residues) deleted; reverse primer ends at AYLAET; non-fusion protein released by SspDnaB intein self-cleavage, His6-CBD-intein removed; E. coli BL21(DE3); initiator Met absent
T1 sequence (P08758 2-254): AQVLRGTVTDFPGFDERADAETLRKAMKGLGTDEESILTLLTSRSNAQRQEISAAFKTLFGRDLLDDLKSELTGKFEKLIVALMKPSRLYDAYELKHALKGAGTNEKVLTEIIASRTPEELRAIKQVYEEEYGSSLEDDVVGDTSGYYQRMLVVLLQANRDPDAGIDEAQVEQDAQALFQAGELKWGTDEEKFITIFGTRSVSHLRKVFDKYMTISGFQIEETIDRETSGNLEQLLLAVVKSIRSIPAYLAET
Text: isothermal titration calorimetry, one-site model on ctA5 (C-terminal truncated anxA5, lacking domain IV)

[2] = target: T2, wtA5 (wild-type anxA5) (Homo sapiens, UniProt P08758); experiment: isothermal titration calorimetry, one-site model; type: binding
T2 construct: non-fusion protein released by SspDnaB intein self-cleavage, His6-CBD-intein removed; E. coli BL21(DE3); forward primer encodes AQVLRG directly after the intein (initiator Met absent)
T2 sequence (P08758 2-320): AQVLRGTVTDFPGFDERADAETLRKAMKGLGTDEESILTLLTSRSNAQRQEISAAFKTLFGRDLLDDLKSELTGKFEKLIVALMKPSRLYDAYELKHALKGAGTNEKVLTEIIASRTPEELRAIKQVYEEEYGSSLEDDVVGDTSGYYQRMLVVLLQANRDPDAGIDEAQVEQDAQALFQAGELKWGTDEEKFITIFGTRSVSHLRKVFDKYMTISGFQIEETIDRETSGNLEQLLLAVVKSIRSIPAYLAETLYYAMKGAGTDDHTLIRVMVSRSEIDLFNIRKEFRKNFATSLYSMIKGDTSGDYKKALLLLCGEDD
Text: isothermal titration calorimetry, one-site model on wtA5 (wild-type anxA5)

## CCCCCCCC/C=C\CCCCCCCC(=O)O[C@H](COC(=O)CCCCCCCCCCCCCCC)COP(=O)(O)OC[C@H](N)C(=O)O [POPS]
[1]
  Kd: 158 ± 15.4 µM
[2]
  Kd: 55.9 ± 6.8 µM
